# Article PMC6509210, “ALK2 inhibitors display beneficial effects in preclinical models of ACVR1 mutant diffuse intrinsic pontine glioma” (Communications Biology, 2019)
# Assays:
# [1] = Tolerability, blood, plasma and brain levels after daily oral dosing in NOD.SCID mice; format: in vivo; conditions: for persistence of concentration in the blood post oral administration / brain:plasma ratio / concentration in mouse brain: NOD.SCID mice; for brain:plasma ratio / concentration in mouse brain: 2 h post-dose, day 14; for tolerability: mouse, in vivo, po
# Description: (§1) Fig. 5 In vivo pharmacokinetics/pharmacodynamics of LDN-193189 (top) and LDN-214117 (bottom). a, e Tolerability in NOD.SCID mice exposed to daily oral treatment with inhibitor over 14 days, as assessed by body weight relative to day 0. Mean and standard deviation of 3 mice per group are plotted. b, f Blood levels of compounds up to 8 h post-exposure to a single oral dose of drug at day 14. Mean and standard deviation of 3 mice per group are plotted. c, g Barplot of compound concentrations in blood (red), plasma (yellow) and brain tissue (blue) 2 h post-exposure to a single oral dose of drug at day 14. Mean and standard deviation of 3 mice per group are plotted. d, h Western blot analysis of downstream pathway inhibition in three orthotopic HSJD-DIPG-007 tumours, after mice were treated with daily oral administration of compound, at the end of 28 days, compared with untreated controls. α-tubulin is the loading control
# 20 µl blood was taken from the tail vein, spiked onto Whatman FTA DMPK-B cards and left to dry for at least 6 h. Female NOD.SCID mice were similarly treated with either 35 mg/kg LDN-193189, 25 mg/kg LDN-214117 or vehicle orally, with 20 µl tail vein blood taken at 1, 2, 4, 6 and 8 h after the first dose and prepared as before. Plasma and brain tissue samples were taken in triplicate at 2 h post-dose on day 14. Analysis was carried out by liquid chromatography-tandem mass spectrometry (LC-MS/MS) using a Waters Xevo TQS coupled with an Acquity UPLC H-class system (Waters, Herts, UK). Chromatography was carried out using a Phenomenex (Macclesfield, UK) C18 X-B column (2.6 µm, 50 mm × 2.1 mm). Data acquisition was performed using Targetlynx, version 4.1 and pharmacokinetic modelling was carried out using Phoenix WinNonlin version 6.3 (Certara, NJ, USA).
# [2] = test system: phospho-SMAD1/5/8 and ID1 in HSJD-DIPG-007 xenograft tumours; assay: Pharmacodynamic biomarkers by Western blot in orthotopic HSJD-DIPG-007 xenograft tumours; format: in vivo, NOD.SCID mice; conditions: daily oral administration, end of 28 days
# Description: as §1, with “Mean and standard deviation of 3 mice per group are plotted. d, h Western blot analysis of downstream pathway inhibition in three orthotopic HSJD-DIPG-007 tumours, after mice were treated with daily oral administration of compound, at the end of 28 days, compared with untreated controls. α-tubulin is the loading control” left out
# For growth factor starvation, cells were washed twice with PBS and then incubated for 1 h in stem cell medium without growth factors. […] Following quantification using Pierce BCA Protein Assay Kit (Thermo Fisher), equal amounts of cell extracts were loaded for Western blot analysis. […] Signal was detected with ECL Prime western blotting detection agent (Amersham Biosciences), visualised using Hyperfilm ECL (Amersham Biosciences) and analysed using an X-ray film processor in accordance with standard protocols. […]
SMILES,persistence of concentration in the blood post oral administration ([1]; 35 mg/kg oral),brain:plasma ratio ([1]; 35 mg/kg oral),concentration in mouse brain ([1]; 35 mg/kg oral) [µM],"body weight change ([1]; mice, 35 mg/kg daily oral, 14 days)",tolerability ([1]; 35 mg/kg),reduction in pharmacodynamic biomarkers phospho-SMAD1/5/8 and ID1 in tumours [2],persistence of concentration in the blood post oral administration ([1]; 25 mg/kg oral),brain:plasma ratio ([1]; 25 mg/kg oral),concentration in mouse brain ([1]; 25 mg/kg oral) [µM],tolerability ([1]; 25 mg/kg)
c1ccc2c(-c3cnn4cc(-c5ccc(N6CCNCC6)cc5)cnc34)ccnc2c1 [LDN-193189],persisted over 8 h,1.34,3.37,initial weight loss,well-tolerated,near-ablation of phospho-SMAD1/5/8 and ID1,–,–,–,–
COc1cc(-c2cc(-c3ccc(N4CCNCC4)cc3)cnc2C)cc(OC)c1OC [LDN-214117],–,–,–,–,–,–,persisted over 8 h,0.80,10.94,well-tolerated
